Results published in patent US20080146509A1, “COMPOSITIONS FOR DELIVERING PARATHYROID HORMONE AND CALCITONIN” (EMISPHERE TECHNOLOGIES, INC., priority 2002, published 2008).

Assay: Mean peak blood calcitonin concentration (Cmax) of sCT after oral capsule dosing of monkeys
Type: in vivo, cynomolgous monkeys
From the text: 5-CNAC disodium salt ethanol solvate was screened through a 35 mesh Tyler standard sieve. 13.54 g of this material was weighed out and kept in a weighing boat. 0.028 g of parathyroid hormone (PTH) and 0.025 g of salmon calcitonin (sCT) were separately weighed out and kept in separate weighing boats. An amount of the previously weighed 5-CNAC disodium salt ethanol solvate approximately equivalent in volume to the total volume of PTH (i.e. a geometric amount) was prescreened through the same 35 mesh Tyler standard sieve on to clean paper. All the PTH was then screened through the same sieve onto the same paper. An amount of the screened 5-CNAC disodium salt ethanol solvate equivalent in volume to the total amount of material on the paper was screened through the same sieve. This was followed by screening the sCT through the same sieve on to the paper. A geometric amount of the 5-CNAC disodium salt ethanol solvate was then screened through the same sieve onto the paper. The materials on the paper were then transferred to a glass mortar and mixed by light trituration with a pestle. The remainder of the 5-CNAC disodium salt ethanol solvate was screened through the same 35 mesh Tyler standard sieve. […]
Four cynomolgous monkeys were dosed via a feeding tube two capsules each followed by 10 ml water. The mean peak blood calcitonin concentration, Cmax, of sCT was then measured.

mean peak blood concentration of sCT relative to that found when dosing capsules of 5-CNAC and sCT in rhesus monkeys (capsules of 5-CNAC disodium salt ethanol solvate, PTH and sCT in cynomolgous monkeys vs capsules of 5-CNAC and sCT in rhesus monkeys): about four
Cmax (monkey, blood, oral, cynomolgous monkeys, via feeding tube two capsules each (per capsule approx. 226.28 mg 5-CNAC disodium salt ethanol solvate, 0.461 mg PTH, 0.411 mg sCT) followed by 10 ml water): 2 to 2.5 ng/mL
SMILES: CC(C)C[C@H](NC(=O)[C@H](CCCCN)NC(=O)CNC(=O)[C@H](CC(C)C)NC(=O)[C@@H](NC(=O)[C@@H]1CSSC[C@H](N)C(=O)N[C@@H](CO)C(=O)N[C@@H](CC(N)=O)C(=O)N[C@@H](CC(C)C)C(=O)N[C@@H](CO)C(=O)N[C@@H]([C@@H](C)O)C(=O)N1)C(C)C)C(=O)N[C@@H](CO)C(=O)N[C@@H](CCC(N)=O)C(=O)N[C@@H](CCC(=O)O)C(=O)N[C@@H](CC(C)C)C(=O)N[C@@H](Cc1c[nH]cn1)C(=O)N[C@@H](CCCCN)C(=O)N[C@@H](CC(C)C)C(=O)N[C@@H](CCC(N)=O)C(=O)N[C@H](C(=O)N[C@@H](Cc1ccc(O)cc1)C(=O)N1CCC[C@H]1C(=O)N[C@@H](CCCNC(=N)N)C(=O)N[C@H](C(=O)N[C@@H](CC(N)=O)C(=O)N[C@H](C(=O)NCC(=O)N[C@@H](CO)C(=O)NCC(=O)N[C@H](C(=O)N1CCC[C@H]1C(N)=O)[C@@H](C)O)[C@@H](C)O)[C@@H](C)O)[C@@H](C)O [sCT, salmon calcitonin]
